Experimental data taken from patent publication US8653023B1, “Dual beneficial effect of dopamine enhancing and neuroprotective actions of PKC delta inhibitors for treatment of Parkinson's disease” (Iowa State University Research Foundation, Inc., priority 2006, dated 2014).
Like-named read-outs stand apart in the source and are kept apart here.

Experiments:
[1] = test system: primary mesencephalic dopaminergic neuronal cells; format: cell-based, mice; details: 10 μM MPP+, 48 hrs
Protocol: Primary mesencephalic neuronal cultures were prepared from the ventral mesencephalon of gestational 16-18-day-old mice embryos as described previously (Yang et al., 2004). Mesencephalic tissues were dissected and maintained in ice-cold Ca^2+-free HESS and then dissociated in HESS solution containing trypsin-EDTA (0.25%) for 20 min at 37° C. The dissociated cells were then plated at equal density (0.5×10^6 cells) in 30-mm-diameter tissue culture wells precoated with poly-D-lysine (1 mg/ml). Cultures were maintained in a chemically defined medium consisting of neurobasal medium fortified with B-27 supplements, L-glutamine (500 μM), penicillin (100 IU/ml), and streptomycin (100 μg/ml) (Life Technologies). The cells were maintained in a humidified CO2 incubator (5% CO2, 37° C.) for 24 hr and then treated with cytosine arabinoside (10 μM) for 24 hr to inhibit glial cell proliferation. Half of the culture medium was replaced every 2 days. Approximately 6-7-day-old cultures were used for experiments. […]
After treatment, the primary mesencephalic neurons were fixed with 4% paraformaldehyde and processed for immunocytotochemical staining. […] Then the coverslips containing stained cells were washed with PBS, mounted on a slide, and viewed under a Nikon inverted fluorescence microscope (Model TE-2000U); images were captured with a SPOT digital camera (Diagnostic Instruments, Sterling Heights, Mich.).
We used Metamorph software (Universal Imaging, Version 5.0) for measurement of TH^+ cells and neuronal processes in primary neurons from each coverslip. For measurement of TH cell count, the images were first thresholded, and then neuronal count and volume were measured using the Integrated Morphometry Analysis (IMA) function. The data were logged to an Excel spreadsheet with defined row and column positions and then analyzed. […] The data were exported to an Excel spreadsheet and analyzed. TH^+ neurons and their processes were counted in at least six individual cultures for each treatment. This method is a modified version of methodology recently used for quantification of neuronal processes.

NZM mice = details: in vivo treatment; cited from earlier work

CC(=O)c1c(O)c(C)c(O)c(Cc2c(O)c3c(c(C(=O)/C=C/c4ccccc4)c2O)OC(C)(C)C=C3)c1O [rottlerin]
MPP+-induced degeneration of TH+ neurons and their processes ([1]; 0.3 μM rottlerin): significantly blocked | MPP+-induced degeneration of TH+ neurons and their processes ([1]; 1 μM rottlerin): significantly blocked | exacerbation of autoimmunity by silica exposure (NZM mice): significantly decreased
